Test results taken from patent US20050233984A1, “Composition for preventing or treating degenerative brain diseases comprising a hydrolysate of ginsenosides” (Digital Biotech Co., Ltd., priority 2002, published 2005).

What was measured:
[1] = Degree of BBB penetration: pharmacokinetics in blood and brain by LC-mass; type: in vivo, Sprague-Dawley rat; conditions: SD rat; for migration into the brain (in words): 1 mg/kg intravenous Rg1 or Rb1
Method: A male Sprague-Dawley rat (weight 250-300 g) was lightly anesthetized with ether and catheterized with a polyethylene tube (PE-50) in the femoral artery and vein. After the rat recovered, a saline solution containing 1 mg/kg of Rg1 or Rb1 was administered into the femoral vein through the intravenous bolus administration. 300 μl blood samples were collected from the rat's femoral artery at 2, 5, 10, 15, 20, 30, 45 and 60 minutes after the administration. Each blood sample was centrifuged to obtain 100 μl of plasma. A plasma sample was prepared as in (2) of step 1 with the plasma. 20 μl of the sample was injected into the LC mass system as in Step 1, and ginsenosides Rg1 and Rb1 and their metabolites PPD and PPT were quantified. The plasma concentrations of ginsenosides and their metabolites were calculated in the forms of weight per plasma (ml) (in case of ginsenosides) or peak size (in case of metabolites).
Immediately after collecting the blood samples, the rats were decapitated and brain tissues were obtained therefrom. The tissues were rinsed with ice-cooled saline, placed in a 15 ml Falcon tube and then weighed precisely. Acetonitrile was added to the tube in an amount twice the weight of the tissue sample, and the sample was homogenized using a tissue homogenizer (Ultra-Turrax T25, JANKE&KUNKEL IKA-Labortechnik). The mixture was centrifuged at 3,000 rpm for 20 minutes. 300 μl of the resulting supernatant was dried in a speed-vac, and 300 μl of acetonitrile was added thereto. 20 μl of the resulting mixture was injected in the LC mass system as in Step 1 to quantify the concentrations of ginsenosides and their metabolites in the brain, and the measured concentrations were represented by weight per gram of the brain tissue or peak size.
Separation and detection conditions for ginsenosides Rg1 and Rb1 were as described in Step 1, and those for metabolites PPD and PPT were as follows:
The transfer rate of the substances into the brain (Kbrain) can be represented by the ratio of the mean concentration of the substance in the brain (Cmean,brain) to the mean plasma concentration (Cmean,plasma) as in Equation 1. [formula]
The mean concentration of a substance can be determined by dividing the area under the concentration-time curve corresponding to time 0 to t by t and, accordingly, the transfer rate of the substance into the brain (Kbrain) can be calculated by Equation 2 shown below. [formula]

[2] = tested on: neuroblastoma B103 cell line; assay: MTT test: preventing the toxicity of beta-amyloid; type: cell-based; conditions: B103 cells, beta-amyloid-only control = 100%
Method: In order to examine the activities of the compounds prepared in the Reference Example in preventing the toxicity of beta-amyloid, the MTT analysis (Gillardon, F. et al., Brain Research. No. 6: pp. 169-172 (1996)) was carried out as follows.
5×10^3 cells of neuroblastoma B103 cell line (donated by Dr. David Schubert of the Salk Institute, USA) were placed in each well of a 96-well plate with 100 μl of DMEM (Dulbecco's Minimal Eagle's Medium) containing 10% fetal bovine serum (FBS), and cultured at 37° C. under 8% CO2 for 1 day. […] The cells were cultured at 37° C. for 18 hours, treated with 15 μl of MTT solution [10 mg/ml solution of 3-(4,5-dimethyl-2-thiazolyl)-2,5-diphenyl-2H-tetrazolium bromide in phosphate buffered saline (PBS)], and allowed to react at 37° C. for 3 to 4 hours. 100 μl of lysis buffer (10% SDS, 50% dimethylformamide, pH 4.7) was added to the wells, and the cells were cultured overnight at room temperature and relative humidity of 90%. Optical density (OD) of each well was measured at […] and 630 nm, respectively, using a scanning multiwell spectrophotometer, and then the OD value at 630 nm was subtracted from that at 570 nm.
Setting the survival rate of the control group treated only with beta-amyloid as 100%, relative survival rates of the experimental groups treated with compound Y, ginsenosides Mc and Rc, PPD and PPT, respectively, were calculated, and the results are shown in Table 2 and FIG. 1. The obtained values were statistically significant.
When the same procedure as above was repeated except that the cells were treated simultaneously with the test compound and beta-amyloid, or treated with the test compound one hour after the beta-amyloid treatment, the results were almost the same as above.
Further, in order to assess the concentration-dependent activity of a test compound, the above procedure was repeated using PPT at concentrations ranging from […].

mice = assay: Morris water maze test (spatial learning); type: in vivo; conditions: versus control group, FIG. 6
[3] = tested on: neuroblastoma B103 cell line; assay: MTT test: apoptosis induced by staurosporin; type: cell-based; conditions: B103 cells, staurosporin-only control = 100%
Method: 5×10^3 cells of neuroblastoma B103 cell line (donated by Dr. David Schubert of the Salk Institute, USA) were placed in each well of a 96-well plate with 100 μl of DMEM (Dulbecco's Minimal Eagle's Medium) containing 10% fetal bovine serum (FBS), and cultured at 37° C. under 8% CO2 for 1 day. After changing the medium to serum-free DMEM, the cells were treated with various concentrations of test compounds and, 1 hour later, with 25 μM of beta-amyloid (25-35 peptide; US peptide, CA, USA). The cells were cultured at 37° C. for 18 hours, treated with 15 μl of MTT solution [10 mg/ml solution of 3-(4,5-dimethyl-2-thiazolyl)-2,5-diphenyl-2H-tetrazolium bromide in phosphate buffered saline (PBS)], and allowed to react at 37° C. for 3 to 4 hours. 100 μl of lysis buffer (10% SDS, 50% dimethylformamide, pH 4.7) was added to the wells, and the cells were cultured overnight at room temperature and relative humidity of 90%. Optical density (OD) of each well was measured at […] and 630 nm, respectively, using a scanning multiwell spectrophotometer, and then the OD value at 630 nm was subtracted from that at 570 nm.
Further, in order to examine whether compounds originating from ginseng can block apoptosis, […], and the survival rates of the neural cells were determined.

[4] = test compound 1 μM + 25 μM beta-amyloid (25-35), 18 hours
[5] = test compound 1 μM alone, without beta-amyloid
[6] = test compound 1 μM + 0.1 μM staurosporin
[7] = test compound 1 μM alone, without staurosporin

With `CC(C)=CCC[C@](C)(O[C@@H]1O[C@H](CO[C@@H]2O[C@H](CO)[C@@H](O)[C@H](O)[C@H]2O)[C@@H](O)[C@H](O)[C@H]1O)[C@H]1CC[C@]2(C)[C@@H]1[C@H](O)C[C@@H]1[C@@]3(C)CC[C@H](O[C@@H]4O[C@H](CO)[C@@H](O)[C@H](O)[C@H]4O[C@@H]4O[C@H](CO)[C@@H](O)[C@H](O)[C@H]4O)C(C)(C)[C@@H]3CC[C@]12C` [ginsenoside Rb1, reference compound] the “migration into the brain (in words)” value [1] was “do not migrate into the brain” and the “concentration in the brain as compared with that in the plasma” value ([1]; 1 mg/kg intravenous bolus, until 60 min., FIG. 11b) was “below 5.8%”.

In the case of `CC(C)=CCC[C@](C)(O[C@@H]1O[C@H](CO)[C@@H](O)[C@H](O)[C@H]1O)[C@H]1CC[C@]2(C)[C@@H]1[C@H](O)C[C@@H]1[C@@]3(C)CC[C@H](O)C(C)(C)[C@@H]3[C@@H](O[C@@H]3O[C@H](CO)[C@@H](O)[C@H](O)[C@H]3O)C[C@]12C` [ginsenoside Rg1, reference compound], the “migration into the brain (in words)” value [1] is reported as “do not migrate into the brain” and the “concentration in the brain” value ([1]; 1 mg/kg intravenous bolus of the ginsenoside, FIG. 11a) is reported as “below the detectable level”.

With `CC(C)=CCC[C@](C)(O[C@@H]1O[C@H](CO[C@@H]2O[C@@H](CO)[C@H](O)[C@H]2O)[C@@H](O)[C@H](O)[C@H]1O)[C@H]1CC[C@]2(C)[C@@H]1[C@H](O)C[C@@H]1[C@@]3(C)CC[C@H](O)C(C)(C)[C@@H]3CC[C@]12C` [Ginsenoside Mc] the “Survival rate (%)” value [2, 4] was 106.1 ± 2.4%, the “Survival rate (%)” value [2, 5] was 148.0 ± 6.3% and the “time to reach the platform” value (mice) was “much shorter time to reach the platform”. For the same molecule, the “Survival rate (%)” value [3, 6] was 101.1 ± 2.7% and the “Survival rate (%)” value [3, 7] was 178.6 ± 6.3%.

For `CC(C)=CCC[C@](C)(O[C@@H]1O[C@H](CO[C@@H]2O[C@@H](CO)[C@H](O)[C@H]2O)[C@@H](O)[C@H](O)[C@H]1O)[C@H]1CC[C@]2(C)[C@@H]1[C@H](O)C[C@@H]1[C@@]3(C)CC[C@H](O[C@@H]4O[C@H](CO)[C@@H](O)[C@H](O)[C@H]4O[C@@H]4O[C@H](CO)[C@@H](O)[C@H](O)[C@H]4O)C(C)(C)[C@@H]3CC[C@]12C` [Ginsenoside Rc], the “Survival rate (%)” value [2, 4] was 106.0 ± 0.9%, the “Survival rate (%)” value [2, 5] was 161.0 ± 4.9% and the “Survival rate (%)” value ([2]; test compound 10 μM + 25 μM beta-amyloid (25-35), 18 hours) was 107.2 ± 1.9%. For the same molecule, the “Survival rate (%)” value ([2]; test compound 10 μM alone, without beta-amyloid) was 126.7 ± 3.7%, the “time to reach the platform” value (mice) was “much shorter time to reach the platform” and the “Survival rate (%)” value [3, 6] was 97.0 ± 4.8%. The “Survival rate (%)” value [3, 7] was 191.4 ± 4.9%.
